Laboratory results from patent US10815230B2, “Casein kinase 1 delta inhibitor” (ELECTROPHORETICS LIMITED, priority 2015, dated 2020).

Assays:
Test in all cases: KINOMEscan binding assay
Conditions in all cases: read-out: % Ctrl @ 10000 nM
CDK4-cyclinD3 = CDK4-cyclinD3 (Homo sapiens, UniProt P11802)
MYO3B = MYO3B (Homo sapiens, UniProt Q8WXR4)
PIK3CA (H1047L) = PIK3CA (H1047L) (Homo sapiens, UniProt P42336, H1047L)
[1] = target: JAK3 (JH1domain-catalytic) (Homo sapiens, UniProt P52333)
BMPR2 = BMPR2 (Homo sapiens, UniProt Q13873)
DRAK2 = DRAK2 (Homo sapiens, UniProt O94768)
PIK3CA (Q546K) = PIK3CA (Q546K) (Homo sapiens, UniProt P42336, Q546K)
CTK = CTK (Homo sapiens, UniProt P42679)
[2] = target: ABL1 (T315I) non-phosphorylated (Homo sapiens, UniProt P00519, T315I)
NEK9 = NEK9 (Homo sapiens, UniProt Q8TD19)
ARK5 = ARK5 (Homo sapiens, UniProt O60285)
[3] = target: RSK1 Kin.Dom.1-N-terminal (Homo sapiens, UniProt Q15418)
EPHB4 = EPHB4 (Homo sapiens, UniProt P54760)
EGFR (L858R) = EGFR (L858R) (Homo sapiens, UniProt P00533, L858R)
IGF1R = IGF1R (Homo sapiens, UniProt P08069)
WNK3 = target: T1, WNK3 (Homo sapiens, UniProt Q9BYP7)
T1 construct: purchased DiscoveRx (KINOMEscan, LeadHunter Discovery services)

BMX = BMX (Homo sapiens, UniProt P51813)
BRSK2 = BRSK2 (Homo sapiens, UniProt Q8IWQ3)
ALK = ALK (Homo sapiens, UniProt Q9UM73)
ASK1 = ASK1 (Homo sapiens, UniProt Q99683)
NEK3 = NEK3 (Homo sapiens, UniProt P51956)
MRCKB = MRCKB (Homo sapiens, UniProt Q9Y5S2)
PAK2 = PAK2 (Homo sapiens, UniProt Q13177)
PRKCH = PRKCH (Homo sapiens, UniProt P24723)
CIT = CIT (Homo sapiens, UniProt O14578)
ACVR2A = ACVR2A (Homo sapiens, UniProt P27037)
PYK2 = PYK2 (Homo sapiens, UniProt Q14289)
LZK = target: T2, LZK (Homo sapiens, UniProt O43283)
T2 construct: T7 phage fusion (most assays) or DNA label after HEK293 expression; purchased DiscoveRx (KINOMEscan, LeadHunter Discovery services); host or cells: T7 phage in E. coli (BL21-derived) or HEK293

NEK1 = NEK1 (Homo sapiens, UniProt Q96PY6)
DCAMKL2 = DCAMKL2 (Homo sapiens, UniProt Q8N568)
LKB1 = target: T3, LKB1 (Homo sapiens, UniProt Q15831)
T3 construct: T7 phage fusion (most assays) or DNA label after HEK293 expression; purchased DiscoveRx (KINOMEscan, LeadHunter Discovery services); host or cells: T7 phage in E. coli (BL21-derived) or HEK293

p38-beta = p38-beta (Homo sapiens, UniProt Q15759)
MEK2 = MEK2 (Homo sapiens, UniProt P36507)
[4] = target: ABL1 (M351T) phosphorylated (Homo sapiens, UniProt P00519, M351T)
MST1R = MST1R (Homo sapiens, UniProt Q04912)
SRPK2 = SRPK2 (Homo sapiens, UniProt P78362)
[5] = target: ABL1 (F317I) non-phosphorylated (Homo sapiens, UniProt P00519, F317I)
CSNK1A1 = CSNK1A1 (Homo sapiens, UniProt P48729)
CHEK1 = CHEK1 (Homo sapiens, UniProt O14757)
MAP4K5 = target: T4, MAP4K5 (Homo sapiens, UniProt Q9Y4K4)
T4 construct: T7 phage fusion (most assays) or DNA label after HEK293 expression; purchased DiscoveRx (KINOMEscan, LeadHunter Discovery services); host or cells: T7 phage in E. coli (BL21-derived) or HEK293

PHKG1 = PHKG1 (Homo sapiens, UniProt Q16816)

BRSK2, sequence (Q8IWQ3 whole entry): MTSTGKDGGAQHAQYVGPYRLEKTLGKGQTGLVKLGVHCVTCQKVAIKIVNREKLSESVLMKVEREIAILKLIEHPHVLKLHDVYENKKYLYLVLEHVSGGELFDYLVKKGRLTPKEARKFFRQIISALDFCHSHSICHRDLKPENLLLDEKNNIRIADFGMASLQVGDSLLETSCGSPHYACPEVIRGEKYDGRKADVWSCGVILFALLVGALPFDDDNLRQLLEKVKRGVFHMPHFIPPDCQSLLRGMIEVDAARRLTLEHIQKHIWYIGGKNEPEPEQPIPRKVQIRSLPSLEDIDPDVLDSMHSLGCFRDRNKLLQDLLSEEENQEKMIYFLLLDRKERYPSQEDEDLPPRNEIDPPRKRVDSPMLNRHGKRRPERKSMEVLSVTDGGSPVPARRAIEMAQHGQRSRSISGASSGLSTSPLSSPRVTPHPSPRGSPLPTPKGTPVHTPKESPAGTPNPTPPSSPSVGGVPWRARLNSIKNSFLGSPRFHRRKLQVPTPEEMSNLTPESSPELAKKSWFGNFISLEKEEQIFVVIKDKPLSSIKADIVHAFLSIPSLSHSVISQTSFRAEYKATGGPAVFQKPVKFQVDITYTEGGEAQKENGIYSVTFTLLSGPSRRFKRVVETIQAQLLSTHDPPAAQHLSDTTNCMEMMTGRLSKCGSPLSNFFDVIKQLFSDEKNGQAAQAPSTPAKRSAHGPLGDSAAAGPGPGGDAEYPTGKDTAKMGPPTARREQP
PYK2, sequence (Q14289 whole entry): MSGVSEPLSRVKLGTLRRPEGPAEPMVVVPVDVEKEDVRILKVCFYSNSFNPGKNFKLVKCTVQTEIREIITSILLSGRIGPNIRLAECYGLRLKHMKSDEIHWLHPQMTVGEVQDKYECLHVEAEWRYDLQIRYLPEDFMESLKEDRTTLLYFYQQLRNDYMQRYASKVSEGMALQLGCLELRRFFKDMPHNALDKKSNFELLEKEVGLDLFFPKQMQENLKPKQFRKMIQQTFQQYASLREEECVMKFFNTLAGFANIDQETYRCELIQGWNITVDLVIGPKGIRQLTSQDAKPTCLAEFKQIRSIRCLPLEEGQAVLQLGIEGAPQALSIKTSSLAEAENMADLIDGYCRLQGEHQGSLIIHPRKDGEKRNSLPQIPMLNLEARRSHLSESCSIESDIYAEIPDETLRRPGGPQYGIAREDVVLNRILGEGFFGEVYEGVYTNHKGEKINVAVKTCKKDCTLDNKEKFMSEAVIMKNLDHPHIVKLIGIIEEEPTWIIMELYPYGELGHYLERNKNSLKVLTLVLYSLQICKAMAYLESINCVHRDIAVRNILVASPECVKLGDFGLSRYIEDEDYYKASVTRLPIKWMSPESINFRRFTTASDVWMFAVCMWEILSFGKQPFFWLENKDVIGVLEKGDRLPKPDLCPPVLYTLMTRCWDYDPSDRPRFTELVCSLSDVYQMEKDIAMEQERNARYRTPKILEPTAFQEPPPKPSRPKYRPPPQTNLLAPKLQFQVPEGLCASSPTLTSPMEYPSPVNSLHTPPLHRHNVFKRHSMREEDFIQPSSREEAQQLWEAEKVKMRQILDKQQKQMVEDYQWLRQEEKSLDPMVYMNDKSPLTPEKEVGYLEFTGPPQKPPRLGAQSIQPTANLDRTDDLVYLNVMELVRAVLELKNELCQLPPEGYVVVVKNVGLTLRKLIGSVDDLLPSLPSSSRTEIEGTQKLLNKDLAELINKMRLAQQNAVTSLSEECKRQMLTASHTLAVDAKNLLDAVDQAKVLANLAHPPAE
PIK3CA (H1047L), sequence (P42336 whole entry H1047L): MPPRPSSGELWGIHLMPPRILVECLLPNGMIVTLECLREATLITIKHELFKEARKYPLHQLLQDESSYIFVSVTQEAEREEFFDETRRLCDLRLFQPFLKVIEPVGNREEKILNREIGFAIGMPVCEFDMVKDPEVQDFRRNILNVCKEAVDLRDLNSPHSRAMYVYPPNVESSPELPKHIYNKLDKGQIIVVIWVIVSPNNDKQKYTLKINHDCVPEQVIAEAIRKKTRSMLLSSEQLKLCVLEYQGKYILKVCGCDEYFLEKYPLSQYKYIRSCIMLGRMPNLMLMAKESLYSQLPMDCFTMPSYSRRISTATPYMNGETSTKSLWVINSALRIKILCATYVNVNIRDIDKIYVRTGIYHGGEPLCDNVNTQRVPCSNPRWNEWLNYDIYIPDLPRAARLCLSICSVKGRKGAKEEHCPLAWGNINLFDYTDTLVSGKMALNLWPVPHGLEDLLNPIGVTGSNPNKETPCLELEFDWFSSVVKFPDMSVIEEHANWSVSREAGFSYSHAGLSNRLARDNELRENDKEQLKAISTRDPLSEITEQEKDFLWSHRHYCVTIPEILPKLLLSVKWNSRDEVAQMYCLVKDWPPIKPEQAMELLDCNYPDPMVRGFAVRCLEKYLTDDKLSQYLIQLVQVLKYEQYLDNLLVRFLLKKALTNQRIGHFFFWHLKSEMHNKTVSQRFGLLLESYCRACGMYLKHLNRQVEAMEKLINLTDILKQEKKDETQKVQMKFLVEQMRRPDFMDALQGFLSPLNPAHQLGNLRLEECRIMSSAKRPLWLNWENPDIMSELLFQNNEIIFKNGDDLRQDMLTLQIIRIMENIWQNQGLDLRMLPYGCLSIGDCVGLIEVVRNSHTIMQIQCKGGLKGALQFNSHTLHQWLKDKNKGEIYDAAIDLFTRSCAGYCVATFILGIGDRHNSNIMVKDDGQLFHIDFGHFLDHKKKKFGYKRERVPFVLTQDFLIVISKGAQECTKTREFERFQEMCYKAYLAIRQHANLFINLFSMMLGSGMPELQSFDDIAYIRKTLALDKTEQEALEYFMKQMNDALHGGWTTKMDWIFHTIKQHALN
BMX, sequence (P51813 whole entry): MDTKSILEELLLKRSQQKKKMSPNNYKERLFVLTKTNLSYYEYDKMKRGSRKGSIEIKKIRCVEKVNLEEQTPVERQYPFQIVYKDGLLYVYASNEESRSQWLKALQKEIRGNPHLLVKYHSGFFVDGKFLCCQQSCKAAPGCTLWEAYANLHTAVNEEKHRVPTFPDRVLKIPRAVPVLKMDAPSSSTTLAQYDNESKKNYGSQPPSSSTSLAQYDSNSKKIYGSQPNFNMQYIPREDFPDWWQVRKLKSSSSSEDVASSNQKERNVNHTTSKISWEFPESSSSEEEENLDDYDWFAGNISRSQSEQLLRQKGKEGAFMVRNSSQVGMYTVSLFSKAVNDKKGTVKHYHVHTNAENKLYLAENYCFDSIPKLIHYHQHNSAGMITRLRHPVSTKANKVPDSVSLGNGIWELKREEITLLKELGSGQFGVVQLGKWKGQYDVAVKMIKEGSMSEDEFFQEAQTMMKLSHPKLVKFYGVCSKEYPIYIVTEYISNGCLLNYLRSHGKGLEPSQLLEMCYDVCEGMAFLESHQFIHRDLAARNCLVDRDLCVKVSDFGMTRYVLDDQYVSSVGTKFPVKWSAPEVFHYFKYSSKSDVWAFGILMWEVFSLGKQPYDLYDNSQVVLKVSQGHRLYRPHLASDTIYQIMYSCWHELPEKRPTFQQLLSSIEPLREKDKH
JAK3 (JH1domain-catalytic), sequence (P52333 822-1111 limits assumed): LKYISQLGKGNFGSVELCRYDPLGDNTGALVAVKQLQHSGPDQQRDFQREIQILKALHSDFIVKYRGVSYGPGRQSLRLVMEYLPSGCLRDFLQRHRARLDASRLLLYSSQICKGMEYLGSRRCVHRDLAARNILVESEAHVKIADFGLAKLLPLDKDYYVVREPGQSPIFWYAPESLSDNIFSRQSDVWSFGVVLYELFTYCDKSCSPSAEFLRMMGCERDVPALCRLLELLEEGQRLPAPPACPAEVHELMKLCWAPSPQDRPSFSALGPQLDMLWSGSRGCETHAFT
CHEK1, sequence (O14757 whole entry): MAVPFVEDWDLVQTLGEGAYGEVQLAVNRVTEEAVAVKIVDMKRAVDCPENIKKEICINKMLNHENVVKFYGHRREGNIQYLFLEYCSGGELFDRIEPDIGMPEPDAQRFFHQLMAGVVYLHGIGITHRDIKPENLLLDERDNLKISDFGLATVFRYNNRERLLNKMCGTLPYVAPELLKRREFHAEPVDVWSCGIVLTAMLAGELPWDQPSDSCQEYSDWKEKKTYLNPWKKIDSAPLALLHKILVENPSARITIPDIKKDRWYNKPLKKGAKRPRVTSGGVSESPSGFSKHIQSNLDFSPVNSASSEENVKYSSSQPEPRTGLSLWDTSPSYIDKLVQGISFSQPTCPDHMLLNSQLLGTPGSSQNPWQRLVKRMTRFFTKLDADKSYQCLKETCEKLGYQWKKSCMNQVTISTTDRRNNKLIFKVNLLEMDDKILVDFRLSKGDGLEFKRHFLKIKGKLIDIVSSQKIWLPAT
ACVR2A, sequence (P27037 20-513): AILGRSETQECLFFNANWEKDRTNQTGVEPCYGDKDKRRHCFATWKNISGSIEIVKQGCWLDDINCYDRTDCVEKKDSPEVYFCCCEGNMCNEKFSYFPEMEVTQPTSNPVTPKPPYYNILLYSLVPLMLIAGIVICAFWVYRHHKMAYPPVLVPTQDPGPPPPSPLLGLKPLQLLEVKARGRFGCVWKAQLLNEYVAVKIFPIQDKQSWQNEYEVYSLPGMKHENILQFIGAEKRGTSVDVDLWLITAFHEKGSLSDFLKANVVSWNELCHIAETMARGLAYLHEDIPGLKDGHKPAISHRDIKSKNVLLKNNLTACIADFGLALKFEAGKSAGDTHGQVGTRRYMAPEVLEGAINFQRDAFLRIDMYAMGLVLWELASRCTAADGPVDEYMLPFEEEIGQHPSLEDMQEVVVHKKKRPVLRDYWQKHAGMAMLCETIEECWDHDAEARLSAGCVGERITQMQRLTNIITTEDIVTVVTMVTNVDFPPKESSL
RSK1 Kin.Dom.1-N-terminal, sequence (Q15418 62-321 limits assumed): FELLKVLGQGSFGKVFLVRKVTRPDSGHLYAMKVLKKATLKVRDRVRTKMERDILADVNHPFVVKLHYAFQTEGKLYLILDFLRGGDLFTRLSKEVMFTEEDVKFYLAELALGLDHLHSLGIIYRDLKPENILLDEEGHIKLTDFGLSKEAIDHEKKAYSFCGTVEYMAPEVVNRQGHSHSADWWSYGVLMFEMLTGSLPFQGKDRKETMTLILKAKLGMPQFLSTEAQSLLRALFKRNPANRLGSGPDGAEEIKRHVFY

SMILES: Nc1ncc(-c2nc3ccccc3o2)c(-c2ccncc2)n1 [Comparative Compound 324, 5-(1,3-benzoxazol-2-yl)-4-(pyridine-4-yl)pyrimidin-2-amine]
- remaining binding at 10 µM (CDK4-cyclinD3): 100%
- remaining binding at 10 µM (MYO3B): 100%
- remaining binding at 10 µM (PIK3CA (H1047L)): 100%
- remaining binding at 10 µM [1]: 74%
- remaining binding at 10 µM (BMPR2): 100%
- remaining binding at 10 µM (DRAK2): 87%
- remaining binding at 10 µM (PIK3CA (Q546K)): 90%
- remaining binding at 10 µM (CTK): 100%
- remaining binding at 10 µM [2]: 96%
- remaining binding at 10 µM (NEK9): 100%
- remaining binding at 10 µM (ARK5): 100%
- remaining binding at 10 µM [3]: 86%
- remaining binding at 10 µM (EPHB4): 100%
- remaining binding at 10 µM (EGFR (L858R)): 76%
- remaining binding at 10 µM (IGF1R): 100%
- remaining binding at 10 µM (WNK3): 89%
- remaining binding at 10 µM (BMX): 100%
- remaining binding at 10 µM (BRSK2): 100%
- remaining binding at 10 µM (ALK): 89%
- remaining binding at 10 µM (ASK1): 96%
- remaining binding at 10 µM (NEK3): 69%
- remaining binding at 10 µM (MRCKB): 100%
- remaining binding at 10 µM (PAK2): 92%
- remaining binding at 10 µM (PRKCH): 99%
- remaining binding at 10 µM (CIT): 73%
- remaining binding at 10 µM (ACVR2A): 100%
- remaining binding at 10 µM (PYK2): 100%
- remaining binding at 10 µM (LZK): 89%
- remaining binding at 10 µM (NEK1): 100%
- remaining binding at 10 µM (DCAMKL2): 99%
- remaining binding at 10 µM (LKB1): 85%
- remaining binding at 10 µM (p38-beta): 100%
- remaining binding at 10 µM (MEK2): 82%
- remaining binding at 10 µM [4]: 79%
- remaining binding at 10 µM (MST1R): 85%
- remaining binding at 10 µM (SRPK2): 100%
- remaining binding at 10 µM [5]: 90%
- remaining binding at 10 µM (CSNK1A1): 4.2%
- remaining binding at 10 µM (CHEK1): 100%
- remaining binding at 10 µM (MAP4K5): 88%
- remaining binding at 10 µM (PHKG1): 100%

SMILES: CNc1c(C(N)=O)c2ccccn2c1C(=O)c1ccc(F)cc1 [Compound A, 2-methyl-amino-3-[(4-fluorophenyl)carbonyl]indolizine-1-carboxamide]
- remaining binding at 10 µM (CDK4-cyclinD3): 96%
- remaining binding at 10 µM (MYO3B): 100%
- remaining binding at 10 µM (PIK3CA (H1047L)): 100%
- remaining binding at 10 µM [1]: 100%
- remaining binding at 10 µM (BMPR2): 88%
- remaining binding at 10 µM (DRAK2): 87%
- remaining binding at 10 µM (PIK3CA (Q546K)): 93%
- remaining binding at 10 µM (CTK): 100%
- remaining binding at 10 µM [2]: 89%
- remaining binding at 10 µM (NEK9): 100%
- remaining binding at 10 µM (ARK5): 85%
- remaining binding at 10 µM [3]: 72%
- remaining binding at 10 µM (EPHB4): 54%
- remaining binding at 10 µM (EGFR (L858R)): 25%
- remaining binding at 10 µM (IGF1R): 99%
- remaining binding at 10 µM (WNK3): 75%
- remaining binding at 10 µM (BMX): 91%
- remaining binding at 10 µM (BRSK2): 94%
- remaining binding at 10 µM (ALK): 90%
- remaining binding at 10 µM (ASK1): 87%
- remaining binding at 10 µM (NEK3): 66%
- remaining binding at 10 µM (MRCKB): 100%
- remaining binding at 10 µM (PAK2): 79%
- remaining binding at 10 µM (PRKCH): 95%
- remaining binding at 10 µM (CIT): 58%
- remaining binding at 10 µM (ACVR2A): 98%
- remaining binding at 10 µM (PYK2): 100%
- remaining binding at 10 µM (LZK): 100%
- remaining binding at 10 µM (NEK1): 95%
- remaining binding at 10 µM (DCAMKL2): 82%
- remaining binding at 10 µM (LKB1): 85%
- remaining binding at 10 µM (p38-beta): 100%
- remaining binding at 10 µM (MEK2): 24%
- remaining binding at 10 µM [4]: 49%
- remaining binding at 10 µM (MST1R): 81%
- remaining binding at 10 µM (SRPK2): 100%
- remaining binding at 10 µM [5]: 85%
- remaining binding at 10 µM (CSNK1A1): 0.95%
- remaining binding at 10 µM (CHEK1): 85%
- remaining binding at 10 µM (MAP4K5): 62%
- remaining binding at 10 µM (PHKG1): 97%
